The source of these data is publication PMC5075806, “SIKs control osteocyte responses to parathyroid hormone” (Nature Communications, 2016).

One assay deals with SIK3 (Homo sapiens, UniProt Q9Y2K2). The assay is described as follows: DiscoverX scanEDGE competition binding panel at […] (SIK3 listed as QSK); value in Supplementary Table […].
The next assay has as its target SIK2 (Homo sapiens, UniProt Q9H0K1). Put plainly: DiscoverX competition binding assay with DNA/phage-tagged kinase, qPCR readout, Kd curves. (Quantitative PCR measures a nucleic acid by following its amplification.)

Sequence of SIK3 (Q9Y2K2 whole entry): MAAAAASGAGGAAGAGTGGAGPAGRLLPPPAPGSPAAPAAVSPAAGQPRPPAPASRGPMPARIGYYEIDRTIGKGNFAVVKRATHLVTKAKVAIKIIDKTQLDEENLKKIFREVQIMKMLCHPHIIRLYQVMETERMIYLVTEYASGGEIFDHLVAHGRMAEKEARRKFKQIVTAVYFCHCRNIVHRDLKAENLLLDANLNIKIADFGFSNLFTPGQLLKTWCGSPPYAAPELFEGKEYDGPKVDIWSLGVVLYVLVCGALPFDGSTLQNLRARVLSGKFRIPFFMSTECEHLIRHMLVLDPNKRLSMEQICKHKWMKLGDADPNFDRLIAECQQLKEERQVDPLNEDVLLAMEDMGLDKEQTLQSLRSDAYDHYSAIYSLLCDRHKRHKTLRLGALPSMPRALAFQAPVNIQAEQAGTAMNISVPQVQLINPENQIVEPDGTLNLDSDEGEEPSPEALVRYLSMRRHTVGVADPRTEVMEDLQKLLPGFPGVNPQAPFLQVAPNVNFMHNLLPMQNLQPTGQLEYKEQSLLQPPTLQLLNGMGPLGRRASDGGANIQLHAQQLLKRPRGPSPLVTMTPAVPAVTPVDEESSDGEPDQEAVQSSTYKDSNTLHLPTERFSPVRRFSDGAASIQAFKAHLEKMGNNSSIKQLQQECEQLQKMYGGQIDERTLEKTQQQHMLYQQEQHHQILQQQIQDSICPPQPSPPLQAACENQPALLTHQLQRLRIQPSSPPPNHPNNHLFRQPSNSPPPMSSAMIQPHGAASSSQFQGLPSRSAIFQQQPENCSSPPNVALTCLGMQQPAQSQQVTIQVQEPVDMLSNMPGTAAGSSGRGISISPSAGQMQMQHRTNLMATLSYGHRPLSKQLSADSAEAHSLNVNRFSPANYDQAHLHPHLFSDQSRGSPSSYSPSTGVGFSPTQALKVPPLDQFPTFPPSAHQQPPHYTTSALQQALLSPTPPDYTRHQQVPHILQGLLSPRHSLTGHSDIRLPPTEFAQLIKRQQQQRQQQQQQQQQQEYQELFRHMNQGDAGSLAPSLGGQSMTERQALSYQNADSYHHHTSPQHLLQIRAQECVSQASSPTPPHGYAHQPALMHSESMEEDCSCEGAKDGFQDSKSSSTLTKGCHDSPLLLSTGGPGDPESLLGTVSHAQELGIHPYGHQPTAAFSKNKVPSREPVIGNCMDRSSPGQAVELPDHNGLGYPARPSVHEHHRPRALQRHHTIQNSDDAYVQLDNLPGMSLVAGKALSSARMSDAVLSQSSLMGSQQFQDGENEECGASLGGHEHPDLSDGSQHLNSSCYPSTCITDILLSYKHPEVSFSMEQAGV
Sequence of SIK2 (Q9H0K1 whole entry): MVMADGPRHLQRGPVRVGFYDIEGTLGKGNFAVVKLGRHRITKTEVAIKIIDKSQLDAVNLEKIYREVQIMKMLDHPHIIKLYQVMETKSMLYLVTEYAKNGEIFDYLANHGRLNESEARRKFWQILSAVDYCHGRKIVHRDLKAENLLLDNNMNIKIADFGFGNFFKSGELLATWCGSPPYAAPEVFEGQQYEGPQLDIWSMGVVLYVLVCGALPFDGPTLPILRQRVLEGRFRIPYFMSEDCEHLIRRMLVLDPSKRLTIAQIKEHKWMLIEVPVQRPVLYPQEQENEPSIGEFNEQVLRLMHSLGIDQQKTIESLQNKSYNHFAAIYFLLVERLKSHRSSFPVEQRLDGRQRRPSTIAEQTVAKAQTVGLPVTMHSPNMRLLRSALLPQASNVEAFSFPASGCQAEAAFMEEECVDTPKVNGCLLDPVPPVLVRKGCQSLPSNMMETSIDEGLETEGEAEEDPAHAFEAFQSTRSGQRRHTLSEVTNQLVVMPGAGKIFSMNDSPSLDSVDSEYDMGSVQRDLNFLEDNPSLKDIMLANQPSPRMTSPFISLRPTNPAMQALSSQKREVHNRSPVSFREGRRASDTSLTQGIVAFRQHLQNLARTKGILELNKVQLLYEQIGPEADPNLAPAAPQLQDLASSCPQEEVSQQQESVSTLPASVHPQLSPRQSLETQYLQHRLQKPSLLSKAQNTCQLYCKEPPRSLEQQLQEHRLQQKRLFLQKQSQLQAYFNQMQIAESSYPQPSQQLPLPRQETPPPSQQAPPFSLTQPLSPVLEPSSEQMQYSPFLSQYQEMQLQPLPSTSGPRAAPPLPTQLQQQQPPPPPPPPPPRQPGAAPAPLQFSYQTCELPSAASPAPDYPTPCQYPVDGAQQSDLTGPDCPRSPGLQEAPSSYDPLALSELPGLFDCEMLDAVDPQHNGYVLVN

Regarding `COc1ccc(N2C(=O)N(c3c(C)cccc3C)Cc3cnc(Nc4ccc(C5CCN(C)CC5)cc4OC)nc32)c(OC)c1` [YKL-05-093], on SIK3, the “DiscoverX scanEDGE competition binding panel at 71 nM (SIK3 listed as QSK); valu” value was “both inhibitors potently target SIK3 in addition to SIK2”. On SIK2, binding was characterised by a dissociation constant (Kd) of 7.1 nM.
